Results published in patent publication EP4506015A1, “COMBINATION OF A MPS1 INHIBITOR AND AN ANTIBODY DRUG CONJUGATE” (Nerviano Medical Sciences S.r.l., priority 2023, dated 2025).

Tested on: LS411N human colorectal cancer cells
Assay: LS411N colorectal cancer xenograft: tumor growth inhibition, tumor growth delay and tumor regressions
Type: in vivo, Balb/c-nude female mice
Details: for TGI: Day 18, vs vehicle; for Median Time to 500 mm3: study cut-off Day 67; for Tumor regressions at day 67: animals with regression of n=10 mice/group; for T/C: median time to 500 mm3, treated vs vehicle; for Tumor growth delay: time to 500 mm3 vs vehicle
Experimental: LS411N human colorectal cancer cells were maintained in RPMI-1640 cell culture medium supplemented with 10% fetal bovine serum at 37°C in an atmosphere of 5% CO2 in air. The cells in exponential growth phase were harvested and counted. Balb/c-nude female mice were inoculated subcutaneously at the right flank with 5x10^6 LS411N cells in 0.2 ml of PBS mixed with Matrigel (1:1) for tumor development. Six days after cell injection, animals having a tumor volume of about 200 mm^3 were randomized and allocated to 9 experimental groups (n=10 mice/group) for treatment with vehicle, compound of formula (II) at 13 mg/kg, compound of formula (II) at 20 mg/kg, tisotumab vedotin at 1 mg/kg, tisotumab vedotin at 4 mg/kg and the combinations of the two doses of compound of formula (II) with the two doses of tisotumab vedotin. Compound of formula (II) was administered intravenously every 4 days for 7 times (Days 0, 4, 8, 12, 16, 20 and 24) and tisotumab vedotin was administered intravenously once a week for two weeks (Days 0 and 7). On Day 0, tisotumab vedotin was given first and, after 1h, compound of formula (II) was administered).
Effect of treatment on tumor growth and body weight was evaluated twice times per week. Tumors were measured in two dimensions using a caliper, and the tumor volume was expressed in mm^3 using the formula: V=(L x W2)/2, where V is tumor volume, L is tumor length (the longest tumor dimension) and W is tumor width (the longest tumor dimension perpendicular to L).
From Day 18 onwards, some animals in the vehicle treated groups had to be euthanized due to tumors reaching the ethical endpoint (3000 mm^3), therefore tumor growth inhibition (TGI) for each treatment group was calculated on Day 18, when all the animals in the vehicle group were available for the calculation of the mean tumor volume.
Figure 2 and Figure 3a and Figure 3b show the tumor growth curves of individual animals in each group and the Kaplan-Meier curves representing the time needed for tumors to reach/exceed 500 mm^3, respectively. Study cut-off Day 67.
To better evaluate the combination benefit, tumor growth delay was evaluated as the time needed for tumors to reach/exceed a defined tumor volume (Table 2). The median time for tumors to reach 500 mm^3 was 7 days, 11 days, 14 days, 28 days and 37 days for vehicle, Compound of formula (II) 13 mg/kg, Compound of formula (II) 20 mg/kg, tisotumab vedotin 1 mg/kg and tisotumab vedotin 4 mg/kg single agent groups, respectively. All the combinations induced a strong tumor growth delay when compared to vehicle and single agent treated arms. The median time for tumors to reach 500 mm^3 in the combination at the lower doses of both agents, Compound of formula (II) 13 mg + tisotumab vedotin 1 mg/kg, was 65 days. For the other combination groups the median time for tumors to reach 500 mm^3 had not yet been reached at Day 67. The effect of the combination on tumor growth delay was more than additive for all the combination groups.

[1] = Compound of formula (II) 13 mg/kg iv every 4 days x7
[2] = Compound of formula (II) 13 mg/kg
[3] = Compound of formula (II) 20 mg/kg iv every 4 days x7
[4] = Compound of formula (II) 20 mg/kg
[5] = tisotumab vedotin 1 mg/kg iv Days 0 and 7
[6] = tisotumab vedotin 4 mg/kg iv Days 0 and 7

For CCc1cccc(CC)c1NC(=O)c1nn(C)c2c1CCc1cnc(Nc3ccc(N4CCC(N(C)C)CC4)cc3OC)nc1-2 [Compound of formula (II), N-(2,6-diethylphenyl)-8-({4-[4-(dimethylamino)piperidin-1-yl]-2-methoxyphenyl}-amino)-1-methyl-4,5-dihydro-1H-pyrazolo[4,3-h]quinazoline-3-carboxamide], the “Mean Tumor Volume (mm^3) Day 18” value [1] was 751 mm^3, the TGI (Compound of formula (II) 13 mg/kg iv every 4 days x7, 13 mg/kg) was 46.4% and the “Median Time to 500 mm3” value [1] was 11 days. For the same molecule, the “Tumor regressions at day 67” value [2] was 0/10, the T/C [2] was 157% and the “Tumor growth delay” value [2] was 4 days. For the same molecule, the “Mean Tumor Volume (mm^3) Day 18” value [3] was 655 mm^3, the TGI (Compound of formula (II) 20 mg/kg iv every 4 days x7, 20 mg/kg) was 52.6% and the “Median Time to 500 mm3” value [3] was 14 days. For the same molecule, the “Tumor regressions at day 67” value [4] was 0/10, the T/C [4] was 200% and the “Tumor growth delay” value [4] was 7 days.

Tisotumab vedotin was tested, and the “control of tumor growth (individual tumor growth curves)” value [5] was “controlled tumor growth initially, but between Days 14 and 20 all tumors started growing”, the “Mean Tumor Volume (mm^3) Day 18” value [5] was 325 mm^3 and the TGI [5] was 76.8%. The “Median Time to 500 mm3” value [5] was 28 days, the “Tumor regressions at day 67” value (tisotumab vedotin 1 mg/kg) was 0/10 and the T/C (tisotumab vedotin 1 mg/kg) was 400%. The “Tumor growth delay” value (tisotumab vedotin 1 mg/kg) was 21 days, the “control of tumor growth (individual tumor growth curves)” value [6] was “controlled tumor growth and induced tumor regressions initially, but after Day 20 tumors started to regrow as well” and the “Mean Tumor Volume (mm^3) Day 18” value [6] was 147 mm^3. The TGI [6] was 89.5%, the “Median Time to 500 mm3” value [6] was 37 days and the “Tumor regressions at day 67” value (tisotumab vedotin 4 mg/kg) was 0/10. The T/C (tisotumab vedotin 4 mg/kg) was 529% and the “Tumor growth delay” value (tisotumab vedotin 4 mg/kg) was 30 days.
